Where two headings read alike, the source gives them in different places.
Experiments:
[1] = assay type: in vivo, human (children 6–17 years); conditions: single oral dose 1.2 mg/kg LBW
[2] = after a 40 mg oral dose; range associated with therapeutic response; cited from earlier work

## COc1ccnc(C[S+]([O-])c2nc3ccc(OC(F)F)cc3[nH]2)c1OC (centres unmarked) [PAN, pantoprazole]
[1]; CYP2C19 genotype *1*1 (n=30)
  PAN plasma AUCtot, Mean (SD): 10.04 (6.81) µM per mg/kg TBW
  PAN plasma AUCtot, Range: [2.68–33.75] µM per mg/kg TBW
[1]; CYP2C19 genotype *1*2 (n=10)
  PAN plasma AUCtot, Mean (SD): 18.07 (11.20) µM per mg/kg TBW
  PAN plasma AUCtot, Range: [7.36–41.31] µM per mg/kg TBW
[1]; CYP2C19 genotype *1*17 (n=16)
  PAN plasma AUCtot, Mean (SD): 7.84 (4.52) µM per mg/kg TBW
  PAN plasma AUCtot, Range: [2.26–18.59] µM per mg/kg TBW
[1]; CYP2C19 genotype *2*2 (n=1)
  PAN plasma AUCtot, Mean (SD): 226.59 (–) µM per mg/kg TBW
[1]; CYP2C19 genotype *2*17 (n=3)
  PAN plasma AUCtot, Mean (SD): 10.42 (3.40) µM per mg/kg TBW
  PAN plasma AUCtot, Range: [7.71–14.23] µM per mg/kg TBW
[1]; CYP2C19 genotype *17*17 (n=1)
  PAN plasma AUCtot, Mean (SD): 4.18 (–) µM per mg/kg TBW
[2]
  typical therapeutic PAN plasma AUCtot: 7 to 17 µM

— PMC9099127 (Clinical and Translational Science, 2022)
